These results are taken from patent US9402827B2, “Treatment of gout” (ARDEA BIOSCIENCES, INC., priority 2010, dated 2016).

One assay concerns IL-1β. The experiment in a line: In vitro primary human monocyte assay, IL-1β. The format is cell-based. Conditions: primary human monocytes, FIG. 4A. The procedure:
Blood (50-60 ml) was collected in Heparin vaccutainers (BD vaccutainer, Cat No-367874, Sodium Heparin, 10 ml tube; each holding ˜8-10 ml blood), which was immediately mixed to prevent coagulation. Accuspin-Histopaque 1077 (Sigma Aldrich cat no-A7054) was allowed to reach room temperature and diluted blood 1:1 in DPBS (Dulbecco's Phosphate-Buffered Saline (1×), liquid—Invitrogen, 14040-133), mixed by pipetting. The tubes were centrifuged (800 g; 30 seconds; room temp) to ensure all the Histopaque 1077 was below the high density polyethylene barrier.
Diluted blood (50 ml) was added to the upper chamber of each ACCUSPIN tube and centrifuged at room temp for 10 minutes at 1000×g or 15 minutes at 800×g, (brakes were off for this step; acc=1, dcl=1). PBMCs were collected from the PBS/Ficoll interphase with a transfer pipette and transferred to a new 50 mL tube. […]
Supernatant was decanted and 5 mL of RBC lysis solution added to the pellet and mixed well. […] The supernatant was discarded, resuspended in RPMI complete media, and the cells counted.
The hPBM cells isolated in step A were counted, centrifuged (300 g; 10 min) and the supernatant aspirated. […]
The centrifuged cells were then resuspended in 5 ml of MACS buffer and applied to the column. […] Cells were spun down (300 g, 5 min; supernatant discarded), resuspended in RPMI complete media and counted.

In assay [1] the test system is MSU-induced knee joint swelling. Kind of assay: In vivo MSU-induced inflammation, rat knee joint study (Example 3C). The arrangement: species or system Sprague-Dawley rats. As for the experimental part: [table] Groups 1 and 2 were orally dosed with Vehicle (sterile water) once daily for seven days from Day 1. […] Groups 6 and 7 were orally dosed with Lesinurad once daily for seven days from Day 1; Group 7 also received colchicine administered subcutaneously on Day 7. […] The injection was performed from the anterior aspect of the knee joint, which was slightly extended and flexed. […] Four hours after MSU administration, the rats were anesthetized, the diameter of right knee joints were measured with calipers; surface temperature for right knees were measured. Synovial lavage fluid from the knee was collected by injecting phosphate buffered saline with 1% BSA (0.2 mL) into the joint cavity, the fluid then collected, centrifuged and the supernatants stored at −80° C.

For assay [2], the system named is monosodium urate crystal-induced inflammatory response. Kind of assay: Rat air pouch model of crystal-induced arthropathy (Example 3A). The class given is in vivo, Sprague-Dawley rats. Conditions: Lesinurad 10, 30 and 100 mg/kg PO; MSU 150 mg; FIG. 5. The procedure:
Procedure • 1. […] NaOH was added as required to maintain pH 8-9. The solution was filtered and incubated at ambient with slow stirring continuously for 24 hours. • b. Crystals were washed, dried and sterilized by autoclaving. • c. […] The rats were anesthetized and bled for sample from retro-orbital sinus into microtainer tubes. • a. The blood was processed to serum; • b. The serum was transferred to labeled Eppendorf tubes (T=0) and stored at −80° C. • c. […] DAY 0: The rats are anesthetized. • a. The nape of the neck was shaved, cleansed with 70% isopropanol followed by cleansing with Povidone. • b. A 23-gauge needle was attached to a 30 ml syringe fitted with an air filter. • c. 30 ml of sterile air was injected subcutaneously and the rat returned to routine maintenance. • 7. DAY 3: Steps 6a) through 6c) were repeated. • 8. […] Exudates volume was measured and recorded for each animal. • a. […] Mean cell counts and standard deviations were determined for each group. • b. Mean optical absorbance measurements and standard deviations were determined for each group. • c. Group means and standard deviations for TNF-alpha and IL-1 were determined for each group. • d. Statistical significance of treatments on mean cell counts, mean optical absorbance measurements and mean cytokine measurements were determined by comparison of means for treatment and positive control groups with vehicle group.

For a further assay, the system named is gout flares. The experiment in a line: Phase II clinical trial in gout patients with hyperuricemia: time to first flare, flare rate (Example 5). To be noted: for 4 Wk % Flare (percent of patients experiencing at least one gout flare by week 4): based on ITT patient number, colchicine prophylaxis; for Time to First Flare (cumulative flare rate), Day 0 / Time to First Flare (cumulative flare rate), Day 7 / Time to First Flare (cumulative flare rate), Day 14 / Time to First Flare (cumulative flare rate), Day 21 / Time to First Flare (cumulative flare rate), Day 28: colchicine prophylaxis 0.5-0.6 mg QD. The class given is in vivo, human. As for the experimental part: A phase II clinical trial including 123 gout patients with hyperuricemia (serum uric acid ≧8 mg/dL) in 4 treatment arms was conducted. The trail lasted 8 weeks, comprising a 2 week run in period, 4 week treatment period and 2 week follow-up.
Patients were randomly assigned to arms 1, 2, 3 or 4 and orally administered Lesinurad according to Table 9 below and FIG. 8; all received colchicine prophylaxis (0.5-0.6 mg QD) for 2 weeks prior to Lesinurad dosing and throughout the 4 week treatment period.

Where [3] appears, read: Arm 2 (200 mg week 1, 400 mg weeks 2-4).
[4] abbreviates: Arm 3 (200 mg week 1, 400 mg week 2, 600 mg weeks 3-4).

Molecules are shown by their SMILES. pIC50: −log10 of the molar value.

Turning to `O=C(O)CSc1nnc(Br)n1-c1ccc(C2CC2)c2ccccc12` [Lesinurad, 2-(5-bromo-4-(4-cyclopropylnaphthalen-1-yl)-4H-1,2,4-triazol-3-ylthio)acetic acid], the pIC50 – broadly, −log10 of the IC50, conventionally taken in molar units – in the assay with IL-1β (Monocyte) was approximately 4.30. Further, the IL-1β inhibition entry in the assay on IL-1β (100 uM, 50 uM and 25 uM) was “dose dependent IL-1β inhibition”. Further, the “Average increase in knee diameter” value in assay [1] (Lesinurad 60 mg/kg p.o. once daily Day1-Day7, 4 h after MSU, p < 0.001 vs Vehicle) was 0.46 mm. Also, in assay [1] (Lesinurad 60 mg/kg/day), the “MSU-induced increase in knee diameter, in words” value is “significantly decreased the MSU-induced increase in knee diameter”. Also, the “monosodium urate crystal-induced inflammatory response (total white blood cell counts)” value in assay [2] was “blocked”. Besides, in the assay on gout flares (Arm 1 (200 mg weeks 1-4)), the “4 Wk % Flare (percent of patients experiencing at least one gout flare by week 4)” value turned out to be 10%; the “Time to First Flare (cumulative flare rate), Day 0” value (from here on “Time to First Flare … Day 0”) came out at 27; the “Time to First Flare (cumulative flare rate), Day 7” value (from here on “Time to First Flare … Day 7”) was determined as 27; the “Time to First Flare (cumulative flare rate), Day 14” value (from here on “Time to First Flare … Day 14”) is listed as 26. Also, in the assay on gout flares (Arm 1 (200 mg weeks 1-4)), the “Time to First Flare (cumulative flare rate), Day 21” value (shortened to “Time to First Flare … Day 21”) is listed as 25 and the “Time to First Flare (cumulative flare rate), Day 28” value (“Time to First Flare … Day 28” below) is listed as 25. In addition, in the assay on gout flares (setting [3]), the “4 Wk % Flare (percent of patients experiencing at least one gout flare by week 4)” value is on record as 12%; the “Time to First Flare … Day 0” value was determined as 31; the “Time to First Flare … Day 7” value is reported as 31; the “Time to First Flare … Day 14” value was 30. For the same compound, in the assay with gout flares (setting [3]), the “Time to First Flare … Day 21” value was determined as 28 and the “Time to First Flare … Day 28” value came out at 26. Besides, in the assay with gout flares (setting [4]), the “Time to First Flare … Day 0” value was found to be 33; the “Time to First Flare … Day 7” value was 31; the “Time to First Flare … Day 14” value is given as 31; the “Time to First Flare … Day 21” value is listed as 29. Besides, in the assay on gout flares (setting [4]), the “Time to First Flare … Day 28” value was 29. The “4 Wk % Flare (percent of patients experiencing at least one gout flare by week 4)” value in the assay on gout flares (Arm 3 (200/400/600/600 mg)) came to 13%.
